The values below are quoted from earlier work in US7666392B2, “Click chemistry-derived cyclopeptide derivatives as imaging agents for integrins” (Siemens Medical Solutions USA, Inc., priority 2006, dated 2010).

As for c(RGDyV), the “tumor uptake in vivo” value (125I-labeled) was “receptor-specific tumor uptake in vivo”. The “tumor washout and excretion” value (in vivo) was “rapid tumor washout and unfavorable hepatobiliary excretion”.
